Measurements as given in ChEMBL document CHEMBL3885881, “DrugMatrix”.

Organism: Rattus norvegicus
Assay: DrugMatrix - Regimen: Daily Repeat
Format: toxicity, organism-based, Sprague-Dawley
Design: regimen Daily Repeat, gender Male, age 6-8 weeks
Details: in vivo, po, route oral GAVAGE, vehicle .5 % CMC; for ABSOLUTE BASOPHIL / ABSOLUTE EOSINOPHIL / ABSOLUTE LYMPHOCYTE / ABSOLUTE MONOCYTE / ABSOLUTE SEGMENTED NEUTROPHIL / BASOPHIL / EOSINOPHIL / ERYTHROCYTE COUNT / HEMATOCRIT / HEMOGLOBIN / LEUKOCYTE COUNT / LYMPHOCYTE / MEAN CORPUSCULAR HEMOGLOBIN / MEAN CORPUSCULAR HEMOGLOBIN CONCENTRATION / MEAN CORPUSCULAR VOLUME / MONOCYTE / NEUTROPHIL / NUCLEATED RED BLOOD CELLS / PLATELET COUNT: tissue Blood; for ALANINE AMINOTRANSFERASE / ALBUMIN / ALKALINE PHOSPHATASE / ASPARTATE AMINOTRANSFERASE / BLOOD UREA NITROGEN / CARBON DIOXIDE / CHLORIDE / CHOLESTEROL / CREATINE PHOSPHOKINASE / CREATININE / LACTATE DEHYDROGENASE / LIPASE / PHOSPHORUS / SODIUM / TOTAL BILIRUBIN / TOTAL PROTEIN / URIC ACID: tissue Plasma
[1] = 29 mg/kg, 72 h, dose level Low, time 3 day
[2] = 29 mg/kg, 120 h, dose level Low, time 5 day
[3] = 1169 mg/kg, 72 h, dose level High, time 3 day
[4] = 1169 mg/kg, 120 h, dose level High, time 5 day

In the case of `Nc1nc(O)c2ncn(COC(CO)CO)c2n1` [GANCICLOVIR], the “ABSOLUTE BASOPHIL” value [1] is reported as 0 CELLS/uL, the “ABSOLUTE EOSINOPHIL” value [1] is reported as 152 CELLS/uL and the “ABSOLUTE LYMPHOCYTE” value [1] is reported as 12965 CELLS/uL. For the same compound, the “ABSOLUTE MONOCYTE” value [1] was 505.67 CELLS/uL, the “ABSOLUTE SEGMENTED NEUTROPHIL” value [1] was 1544 CELLS/uL and the BASOPHIL [1] was 0%. For the same compound, the EOSINOPHIL [1] was 1%, the “ERYTHROCYTE COUNT” value [1] was 5.64 x10E6/uL and the HEMATOCRIT [1] was 35.17%. For the same compound, the HEMOGLOBIN [1] was 13.17 G/DL, the “LEUKOCYTE COUNT” value [1] was 15.17 x10E3/uL and the LYMPHOCYTE [1] was 85.67%. For the same compound, the “MEAN CORPUSCULAR HEMOGLOBIN” value [1] was 23.37 pg, the “MEAN CORPUSCULAR HEMOGLOBIN CONCENTRATION” value [1] was 37.47 G/DL and the “MEAN CORPUSCULAR VOLUME” value [1] was 62.37 fL. The MONOCYTE [1] was 3.33%, the NEUTROPHIL [1] was 10% and the “NUCLEATED RED BLOOD CELLS” value [1] was 0 /100WBC. For the same compound, the “PLATELET COUNT” value [1] was 1360 x10E3/uL, the “ALANINE AMINOTRANSFERASE” value [1] was 48 u/L and the ALBUMIN [1] was 4.17 G/DL. For the same compound, the “ALKALINE PHOSPHATASE” value [1] was 319.67 u/L, the “ASPARTATE AMINOTRANSFERASE” value [1] was 96 u/L and the “BLOOD UREA NITROGEN” value [1] was 18 mg/dL. The “CARBON DIOXIDE” value [1] was 24 mmol/L, the CHLORIDE [1] was 103 MEQ/L and the CHOLESTEROL [1] was 67.67 mg/dL. The “CREATINE PHOSPHOKINASE” value [1] was 635.33 u/L, the CREATININE [1] was 0.21 mg/dL and the “LACTATE DEHYDROGENASE” value [1] was 646.33 u/L. The LIPASE [1] was 8.67 u/L, the PHOSPHORUS [1] was 14.2 mg/dL and the SODIUM [1] was 145.5 MEQ/L. The “TOTAL BILIRUBIN” value [1] was 0.2 mg/dL, the “TOTAL PROTEIN” value [1] was 5.9 G/DL and the “URIC ACID” value [1] was 2.23 mg/dL. The “ABSOLUTE BASOPHIL” value [2] was 0 CELLS/uL, the “ABSOLUTE EOSINOPHIL” value [2] was 86.67 CELLS/uL and the “ABSOLUTE LYMPHOCYTE” value [2] was 11979.33 CELLS/uL. The “ABSOLUTE MONOCYTE” value [2] was 137.33 CELLS/uL, the “ABSOLUTE SEGMENTED NEUTROPHIL” value [2] was 1530 CELLS/uL and the BASOPHIL [2] was 0%. The EOSINOPHIL [2] was 0.67%, the “ERYTHROCYTE COUNT” value [2] was 5.69 x10E6/uL and the HEMATOCRIT [2] was 35.37%. The HEMOGLOBIN [2] was 13.23 G/DL, the “LEUKOCYTE COUNT” value [2] was 13.73 x10E3/uL and the LYMPHOCYTE [2] was 87%. For the same compound, the “MEAN CORPUSCULAR HEMOGLOBIN” value [2] was 23.27 pg, the “MEAN CORPUSCULAR HEMOGLOBIN CONCENTRATION” value [2] was 37.47 G/DL and the “MEAN CORPUSCULAR VOLUME” value [2] was 62.13 fL. The MONOCYTE [2] was 1%, the NEUTROPHIL [2] was 11.33% and the “NUCLEATED RED BLOOD CELLS” value [2] was 0 /100WBC. The “PLATELET COUNT” value [2] was 1168 x10E3/uL, the “ALANINE AMINOTRANSFERASE” value [2] was 47.67 u/L and the ALBUMIN [2] was 4.2 G/DL. The “ALKALINE PHOSPHATASE” value [2] was 323 u/L, the “ASPARTATE AMINOTRANSFERASE” value [2] was 91.67 u/L and the “BLOOD UREA NITROGEN” value [2] was 19.33 mg/dL. The “CARBON DIOXIDE” value [2] was 25.33 mmol/L, the CHLORIDE [2] was 106.33 MEQ/L and the CHOLESTEROL [2] was 74.67 mg/dL. For the same compound, the “CREATINE PHOSPHOKINASE” value [2] was 428.33 u/L, the CREATININE [2] was 0.15 mg/dL and the “LACTATE DEHYDROGENASE” value [2] was 720 u/L. It also gave an LIPASE [2] of 8.67 u/L, a PHOSPHORUS [2] of 11.4 mg/dL and an SODIUM [2] of 145.9 MEQ/L. The “TOTAL BILIRUBIN” value [2] was 0.13 mg/dL, the “TOTAL PROTEIN” value [2] was 5.77 G/DL and the “URIC ACID” value [2] was 0.83 mg/dL. The “ABSOLUTE BASOPHIL” value [3] was 0 CELLS/uL, the “ABSOLUTE EOSINOPHIL” value [3] was 180.33 CELLS/uL and the “ABSOLUTE LYMPHOCYTE” value [3] was 12632.33 CELLS/uL. The “ABSOLUTE MONOCYTE” value [3] was 432 CELLS/uL, the “ABSOLUTE SEGMENTED NEUTROPHIL” value [3] was 1155.33 CELLS/uL and the BASOPHIL [3] was 0%. The EOSINOPHIL [3] was 1.67%, the “ERYTHROCYTE COUNT” value [3] was 5.52 x10E6/uL and the HEMATOCRIT [3] was 33.9%. For the same compound, the HEMOGLOBIN [3] was 12.9 G/DL, the “LEUKOCYTE COUNT” value [3] was 14.4 x10E3/uL and the LYMPHOCYTE [3] was 87%. For the same compound, the “MEAN CORPUSCULAR HEMOGLOBIN” value [3] was 23.43 pg, the “MEAN CORPUSCULAR HEMOGLOBIN CONCENTRATION” value [3] was 38.07 G/DL and the “MEAN CORPUSCULAR VOLUME” value [3] was 61.57 fL. For the same compound, the MONOCYTE [3] was 3%, the NEUTROPHIL [3] was 8.33% and the “NUCLEATED RED BLOOD CELLS” value [3] was 0.33 /100WBC. For the same compound, the “PLATELET COUNT” value [3] was 1439 x10E3/uL, the “ALANINE AMINOTRANSFERASE” value [3] was 45.33 u/L and the ALBUMIN [3] was 4.3 G/DL. For the same compound, the “ALKALINE PHOSPHATASE” value [3] was 313.33 u/L, the “ASPARTATE AMINOTRANSFERASE” value [3] was 76 u/L and the “BLOOD UREA NITROGEN” value [3] was 19 mg/dL. For the same compound, the “CARBON DIOXIDE” value [3] was 27.33 mmol/L, the CHLORIDE [3] was 103.67 MEQ/L and the CHOLESTEROL [3] was 79.67 mg/dL. The “CREATINE PHOSPHOKINASE” value [3] was 222.33 u/L, the CREATININE [3] was 0.23 mg/dL and the “LACTATE DEHYDROGENASE” value [3] was 239 u/L. It also gave an LIPASE [3] of 9 u/L, a PHOSPHORUS [3] of 12.3 mg/dL and an SODIUM [3] of 145.57 MEQ/L. The “TOTAL BILIRUBIN” value [3] was 0.2 mg/dL, the “TOTAL PROTEIN” value [3] was 5.93 G/DL and the “URIC ACID” value [3] was 1.27 mg/dL. The “ABSOLUTE BASOPHIL” value [4] was 0 CELLS/uL, the “ABSOLUTE EOSINOPHIL” value [4] was 164.33 CELLS/uL and the “ABSOLUTE LYMPHOCYTE” value [4] was 13318 CELLS/uL. For the same compound, the “ABSOLUTE MONOCYTE” value [4] was 365.67 CELLS/uL, the “ABSOLUTE SEGMENTED NEUTROPHIL” value [4] was 1652 CELLS/uL and the BASOPHIL [4] was 0%. The EOSINOPHIL [4] was 1%, the “ERYTHROCYTE COUNT” value [4] was 5.49 x10E6/uL and the HEMATOCRIT [4] was 34.33%. The HEMOGLOBIN [4] was 13.13 G/DL, the “LEUKOCYTE COUNT” value [4] was 15.5 x10E3/uL and the LYMPHOCYTE [4] was 86%. The “MEAN CORPUSCULAR HEMOGLOBIN” value [4] was 23.93 pg, the “MEAN CORPUSCULAR HEMOGLOBIN CONCENTRATION” value [4] was 38.27 G/DL and the “MEAN CORPUSCULAR VOLUME” value [4] was 62.6 fL. For the same compound, the MONOCYTE [4] was 2.33%, the NEUTROPHIL [4] was 10.67% and the “NUCLEATED RED BLOOD CELLS” value [4] was 0.33 /100WBC. The “PLATELET COUNT” value [4] was 1216.67 x10E3/uL, the “ALANINE AMINOTRANSFERASE” value [4] was 42.33 u/L and the ALBUMIN [4] was 4.2 G/DL. The “ALKALINE PHOSPHATASE” value [4] was 345.33 u/L, the “ASPARTATE AMINOTRANSFERASE” value [4] was 78.67 u/L and the “BLOOD UREA NITROGEN” value [4] was 19.67 mg/dL. For the same compound, the “CARBON DIOXIDE” value [4] was 29.33 mmol/L, the CHLORIDE [4] was 102.33 MEQ/L and the CHOLESTEROL [4] was 65.33 mg/dL. The “CREATINE PHOSPHOKINASE” value [4] was 220 u/L, the CREATININE [4] was 0.18 mg/dL and the “LACTATE DEHYDROGENASE” value [4] was 181 u/L. The LIPASE [4] was 8.67 u/L, the PHOSPHORUS [4] was 11.73 mg/dL and the SODIUM [4] was 145.77 MEQ/L. For the same compound, the “TOTAL BILIRUBIN” value [4] was 0.13 mg/dL, the “TOTAL PROTEIN” value [4] was 5.9 G/DL and the “URIC ACID” value [4] was 1.43 mg/dL.
